Source: patent publication US4738983A, “Ethylenediamine and guanidine-derivatives” (Degussa aktiengesellschaft, priority 1982, dated 1988)

System: carbachol spasm of the rat stomach
Assay: carbachol spasm of the rat stomach (stomach-spasmolytic effect)
Assay type: in vivo
Conditions: intraduodenal, relative to Ranitidin
Excerpt: The test substances are applied intraduodenally. In this model, the stomach-spasmolytic effect of the compound according to Example 1 is, for example 3.8 times greater than that of "Ranitidin".

## CNC(=C[N+](=O)[O-])NCCSCc1ccc(CNC2C3CC4C(C3)C42)o1 (stereo not shown) [Example 1, N-[2-[[5-(tricyclo(2.2.1.0^2.6)hept-3-yl-amino-methyl)-2-furanyl]-methylthio]-ethyl]-N'-methyl-2-nitro-1,1-ethylene-diamine]
  stomach-spasmolytic effect, times greater than that of Ranitidin: 3.8 times
